ChEMBL document CHEMBL1201862, “PubChem BioAssay data set” (2004)
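Tested at 5 concentrations; 48 h exposure; 96-well plates; endpoints linearly interpolated, else capped at highest concentration. Here, GI50 denotes the concentration required for 50% inhibition of growth.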 The source made the active and inactive calls. Cut-off read from the data, not from the text of the source: active = GI50 up to about 1.1 µM and inactive = higher. Residues, ends and D or L forms follow the SMILES beside them. Peptide text beside a SMILES is read from it. * marks the point of attachment. *: point of attachment. Cbz = O=C(OCc1ccccc1)*; Boc = CC(C)(C)OC(=O)*; OBn = c1ccc(CO*)cc1

How the values were obtained:
Assay in all cases: NCI tumour cell line growth inhibition, 48 h
786-0 = tested on: 786-0
A549 = tested on: A549
ACHN = tested on: ACHN
CAKI-1 = tested on: CAKI-1
COLO 205 = tested on: COLO 205
EKVX = tested on: EKVX
HCT-15 = tested on: HCT-15
K562 = tested on: K562
MDA-MB-231 = tested on: MDA-MB-231
NCI-H460 = tested on: NCI-H460
SN12C = tested on: SN12C
SNB-75 = tested on: SNB-75
T47D = tested on: T47D
TK-10 = tested on: TK-10
UACC-257 = tested on: UACC-257
UACC-62 = tested on: UACC-62
UO-31 = tested on: UO-31
SK-MEL-2 = tested on: SK-MEL-2
HCC 2998 = tested on: HCC 2998

Row | SMILES | GI50 (786-0) | GI50 (A549) | GI50 (ACHN) | GI50 (CAKI-1) | GI50 (COLO 205) | GI50 (EKVX) | GI50 (HCT-15) [µM] | GI50 (K562) | GI50 (MDA-MB-231) | GI50 (NCI-H460) | GI50 (SN12C) | GI50 (SNB-75) | GI50 (T47D) | GI50 (TK-10) | GI50 (UACC-257) | GI50 (UACC-62) | GI50 (UO-31) | GI50 (SK-MEL-2) | GI50 (HCC 2998)
1 | COc1cc2c(cc1OC)C13CC[N+]4(C)CC5=CCOC6CC(=O)N2C1C6C5CC34[O-] (stereo not drawn) | > 100 µM (inactive) | > 100 µM (inactive) | > 100 µM (inactive) | > 100 µM (inactive) | > 100 µM (inactive) | > 100 µM (inactive) | > 100 | > 100 µM (inactive) | > 100 µM (inactive) | > 100 µM (inactive) | > 100 µM (inactive) | > 100 µM (inactive) | > 100 µM (inactive) | > 100 µM (inactive) | > 100 µM (inactive) | > 100 µM (inactive) | > 100 µM (inactive) | – | –
2 | O=C(CCn1ccnc1[N+](=O)[O-])NCCCn1ccnc1[N+](=O)[O-] | > 100 µM (inactive) | > 100 µM (inactive) | > 100 µM (inactive) | > 100 µM (inactive) | > 100 µM (inactive) | > 100 µM (inactive) | > 100 | > 100 µM (inactive) | > 100 µM (inactive) | > 100 µM (inactive) | > 100 µM (inactive) | > 100 µM (inactive) | > 100 µM (inactive) | > 100 µM (inactive) | > 100 µM (inactive) | > 100 µM (inactive) | > 100 µM (inactive) | > 100 µM (inactive) | –
3 | CC(C)C1=CC23CCC4C(C)(C(=O)O)CCCC4(C)C2CC1C1C(=O)N(c2ccc(N4C(=O)C5C6CC7C8(C)CCCC(C)(C(=O)O)C8CCC7(C=C6C(C)C)C5C4=O)cc2)C(=O)C13 (stereo not drawn) | 13.1 µM (inactive) | 6.1 µM (inactive) | 5.9 µM (inactive) | – | 3.47 µM (inactive) | 4.09 µM (inactive) | 12.6 | 4.35 µM (inactive) | 4.58 µM (inactive) | – | 4.46 µM (inactive) | – | 12.1 µM (inactive) | 16.4 µM (inactive) | – | – | 18.5 µM (inactive) | 13.5 µM (inactive) | 4.41 µM (inactive)
4 | Cc1sc2c(c1C)/C(=N\O)c1cccn1-2 | 20.1 µM (inactive) | 44.5 µM (inactive) | 37.2 µM (inactive) | 32.6 µM (inactive) | > 100 µM (inactive) | 22.2 µM (inactive) | 81.8 | – | 52.8 µM (inactive) | 35.1 µM (inactive) | 38.5 µM (inactive) | 16.2 µM (inactive) | 25.1 µM (inactive) | 43.6 µM (inactive) | 93.5 µM (inactive) | 95.7 µM (inactive) | 31.6 µM (inactive) | 45.2 µM (inactive) | 37 µM (inactive)
5 | O=C1CC2(CCNCC2)C(=O)N1N1CCCC1 | > 100 µM (inactive) | > 100 µM (inactive) | > 100 µM (inactive) | > 100 µM (inactive) | > 100 µM (inactive) | > 100 µM (inactive) | > 100 | > 100 µM (inactive) | > 100 µM (inactive) | – | > 100 µM (inactive) | – | > 100 µM (inactive) | > 100 µM (inactive) | > 100 µM (inactive) | > 100 µM (inactive) | > 100 µM (inactive) | – | > 100 µM (inactive)
6 | CC(NC(=O)Cc1ccccc1)NC(=O)C(C)C(=O)Nc1ccccc1 (stereo not drawn) | 52.2 µM (inactive) | > 100 µM (inactive) | 41.6 µM (inactive) | 66.5 µM (inactive) | > 100 µM (inactive) | > 100 µM (inactive) | > 100 | > 100 µM (inactive) | 65.6 µM (inactive) | > 100 µM (inactive) | 36.1 µM (inactive) | 24 µM (inactive) | > 100 µM (inactive) | 33.3 µM (inactive) | > 100 µM (inactive) | > 100 µM (inactive) | 43.7 µM (inactive) | > 100 µM (inactive) | –
7 | Fc1ccccc1-c1nn2c(C34CC5CC(CC(C5)C3)C4)nnc2s1 | > 100 µM (inactive) | > 100 µM (inactive) | > 100 µM (inactive) | > 100 µM (inactive) | > 100 µM (inactive) | > 100 µM (inactive) | > 100 | > 100 µM (inactive) | > 100 µM (inactive) | > 100 µM (inactive) | > 100 µM (inactive) | > 100 µM (inactive) | > 100 µM (inactive) | – | > 100 µM (inactive) | > 100 µM (inactive) | > 100 µM (inactive) | > 100 µM (inactive) | > 100 µM (inactive)
8 | CC1(C)O[C@H]([C@H](O)c2nnc3ccc(Cl)nn23)[C@@H]([C@H]2COC(C)(C)O2)O1 | > 100 µM (inactive) | > 100 µM (inactive) | > 100 µM (inactive) | > 100 µM (inactive) | > 100 µM (inactive) | > 100 µM (inactive) | > 100 | – | > 100 µM (inactive) | > 100 µM (inactive) | > 100 µM (inactive) | – | > 100 µM (inactive) | > 100 µM (inactive) | > 100 µM (inactive) | > 100 µM (inactive) | – | > 100 µM (inactive) | > 100 µM (inactive)
9 | [N-]=[N+]=NC1=CC(=O)c2cccc3cccc1c23 | 31.9 µM (inactive) | 32.4 µM (inactive) | 29.2 µM (inactive) | 22.2 µM (inactive) | 49.7 µM (inactive) | – | – | 26.2 µM (inactive) | 73.8 µM (inactive) | 31.1 µM (inactive) | 43.3 µM (inactive) | 13.5 µM (inactive) | 22.3 µM (inactive) | 44.4 µM (inactive) | 31.7 µM (inactive) | 16.5 µM (inactive) | 24.9 µM (inactive) | – | 38 µM (inactive)
10 | CC(C)CC(NC(=O)OC(C)(C)C)C(=O)NC(CC(=O)OCc1ccccc1)C(N)=O (stereo not drawn) (Boc-Leu-Asp(OBn)-NH2; configuration not given here) | > 100 µM (inactive) | > 100 µM (inactive) | > 100 µM (inactive) | > 100 µM (inactive) | > 100 µM (inactive) | > 100 µM (inactive) | > 100 | > 100 µM (inactive) | > 100 µM (inactive) | – | > 100 µM (inactive) | 17.3 µM (inactive) | > 100 µM (inactive) | > 100 µM (inactive) | > 100 µM (inactive) | > 100 µM (inactive) | > 100 µM (inactive) | > 100 µM (inactive) | –
11 | CC(=O)c1nc2ccccc2n1CC(=O)c1ccc([N+](=O)[O-])cc1 | 3.47 µM (inactive) | 11.4 µM (inactive) | – | 17.4 µM (inactive) | 34.8 µM (inactive) | > 100 µM (inactive) | 42.3 | 5.5 µM (inactive) | 26.1 µM (inactive) | 5.74 µM (inactive) | 17.8 µM (inactive) | 35.3 µM (inactive) | 8.18 µM (inactive) | 42.5 µM (inactive) | 33.6 µM (inactive) | 10 µM (inactive) | 14.9 µM (inactive) | – | –
12 | Cc1ccc(C(CCO)CCO)nc1 | > 100 µM (inactive) | > 100 µM (inactive) | > 100 µM (inactive) | > 100 µM (inactive) | > 100 µM (inactive) | > 100 µM (inactive) | > 100 | – | > 100 µM (inactive) | > 100 µM (inactive) | > 100 µM (inactive) | > 100 µM (inactive) | > 100 µM (inactive) | > 100 µM (inactive) | > 100 µM (inactive) | > 100 µM (inactive) | > 100 µM (inactive) | > 100 µM (inactive) | > 100 µM (inactive)
13 | Cc1ccc(S(=O)(=O)NC(=O)C2C(=O)CC3(CCCCC3)CC2=O)cc1 | 25.9 µM (inactive) | 33.3 µM (inactive) | 22.9 µM (inactive) | 26.4 µM (inactive) | 17.9 µM (inactive) | 25.4 µM (inactive) | 23.2 | 38.1 µM (inactive) | 36.1 µM (inactive) | 25.2 µM (inactive) | 30.8 µM (inactive) | 51.4 µM (inactive) | 20 µM (inactive) | 23.5 µM (inactive) | 28.6 µM (inactive) | 31.3 µM (inactive) | 22.4 µM (inactive) | – | –
14 | CC(C)(C)OC(=O)N(CCCN)CCCCN | > 100 µM (inactive) | > 100 µM (inactive) | > 100 µM (inactive) | > 100 µM (inactive) | > 100 µM (inactive) | > 100 µM (inactive) | > 100 | > 100 µM (inactive) | 0.0673 µM (active) | > 100 µM (inactive) | > 100 µM (inactive) | – | > 100 µM (inactive) | > 100 µM (inactive) | > 100 µM (inactive) | > 100 µM (inactive) | > 100 µM (inactive) | > 100 µM (inactive) | > 100 µM (inactive)
15 | O=C(O)/C(=C/C(=O)c1ccc(Cl)cc1)NNc1ccc([N+](=O)[O-])cc1[N+](=O)[O-] | 27 µM (inactive) | 40.6 µM (inactive) | 31.8 µM (inactive) | 24.8 µM (inactive) | > 100 µM (inactive) | > 100 µM (inactive) | 48.3 | 36.9 µM (inactive) | 36.8 µM (inactive) | 34.3 µM (inactive) | 41.8 µM (inactive) | – | 55.5 µM (inactive) | 57.5 µM (inactive) | > 100 µM (inactive) | 38.7 µM (inactive) | 20.8 µM (inactive) | 31.7 µM (inactive) | 59.8 µM (inactive)
16 | CCOC(=O)CCC(NC(=O)OCc1ccccc1)C(=O)NC(CCC(=O)OCC)C(=O)OCC (stereo not drawn) (Cbz-Glu(OEt)-Glu(OEt)-OEt; configuration not given here) | > 100 µM (inactive) | > 100 µM (inactive) | > 100 µM (inactive) | > 100 µM (inactive) | > 100 µM (inactive) | > 100 µM (inactive) | > 100 | > 100 µM (inactive) | > 100 µM (inactive) | > 100 µM (inactive) | > 100 µM (inactive) | > 100 µM (inactive) | > 100 µM (inactive) | – | > 100 µM (inactive) | > 100 µM (inactive) | > 100 µM (inactive) | > 100 µM (inactive) | > 100 µM (inactive)
